{"source": "patent US11129870B2", "about": "“Compositions and methods for uncoupling TrkB receptor from PLC gamma 1 for the treatment of epilepsy and anxiety-like disorder” (DUKE UNIVERSITY, priority 2010, dated 2021)", "system": "PLCγ1", "test": "SE-induced activation of PLCγ1 in hippocampus, peptide given i.v. after SE", "format": "in vivo, mouse", "details": "6 hr later", "experimental": "Surgery and microinfusion studies provided in Examples 10-14 were performed as described here. Surgery and microinfusion of KA into right amygdala of adult mice was performed as previously described (Liu, G. et al., (2013) Neuron 79:31-38). Briefly, mice were anesthetized with pentobarbital (60 mg/kg, intraperitoneally [i.p.]) and placed in a stereotaxic frame. A guide cannula was stereotactically placed above the right amygdala (coordinates from bregma: AP=−1.2 mm; ML=3.0 mm). A bipolar electrode was placed in the left dorsal hippocampus (coordinates from bregma: AP=−2.0 mm; ML=−1.6 mm; DV=−1.5 mm). A ground electrode connected to a screw was placed in the skull above the cerebellum. After a postoperative recovery period of 7 days, the animal was gently restrained and an infusion cannula was inserted into the right amygdala through the guide cannula at the depth of 3.7 mm below dura. […]\nAnimals were anesthetized with pentobarbital (200 mg/kg i.p.) and decapitated, and the head was quickly immersed in liquid nitrogen for 4 s to rapidly cool the brain. […] The immunoreactivity of individual bands on western blots was measured by ImageJ software (National Institutes of Health) and normalized to PLCγ1, Akt or ERK contents. Equivalent protein loading among samples was monitored by β-actin (1:10000; Sigma) levels. […]", "note": "Where no end group is shown, it is not given here. [ ]: non-standard residue; d: D form. pY = N[C@@H](Cc1ccc(OP(=O)(O)O)cc1)C(=O)O"}
{"substance": "YGRKKRRQRRR-LQNLAKASPVpYLDI (YGRKKRRQRRRLQNLAKASPV[pY]LDI) [pY816]", "values": [{"measurement": "inhibition of SE-induced activation of PLCγ1 (p-PLCγ1 pY783 to PLCγ1 ratio)", "setting": "10 mg/kg i.v. immediately after diazepam", "value": "~75", "unit": "%"}, {"measurement": "inhibition of SE-induced activation of PLCγ1 (p-PLCγ1 pY783 to PLCγ1 ratio)", "setting": "20 mg/kg i.v. immediately after diazepam", "value": "~75", "unit": "%"}]}
